Laboratory results from publication PMC5680308, “Binding of mycotoxins to proteins involved in neuronal plasticity: a combined in silico/wet investigation” (Scientific Reports, 2017).
Like-named read-outs stand apart in the source and are kept apart here.

Experiments:
[1] = molecular target: T1, Human recombinant neuroligin 4-X linked (NLGN4X) (Homo sapiens, UniProt Q8N0W4); assay: biochemical; assay type: binding; conditions: for Kd: read-out: dissociation constant (kD)
[2] = molecular target: T1, Human recombinant neuroligin 4-X linked (NLGN4X); assay: Microscale thermophoresis (MST) assay; assay type: binding
[3] = molecular target: T2, human recombinant acetylcholinesterase (AChE) (Homo sapiens, UniProt P22303); assay: Microscale thermophoresis (MST) assay; assay type: binding
T2 construct: purchased Sigma Aldrich (Milano, Italy)
T2 sequence (P22303 32-614): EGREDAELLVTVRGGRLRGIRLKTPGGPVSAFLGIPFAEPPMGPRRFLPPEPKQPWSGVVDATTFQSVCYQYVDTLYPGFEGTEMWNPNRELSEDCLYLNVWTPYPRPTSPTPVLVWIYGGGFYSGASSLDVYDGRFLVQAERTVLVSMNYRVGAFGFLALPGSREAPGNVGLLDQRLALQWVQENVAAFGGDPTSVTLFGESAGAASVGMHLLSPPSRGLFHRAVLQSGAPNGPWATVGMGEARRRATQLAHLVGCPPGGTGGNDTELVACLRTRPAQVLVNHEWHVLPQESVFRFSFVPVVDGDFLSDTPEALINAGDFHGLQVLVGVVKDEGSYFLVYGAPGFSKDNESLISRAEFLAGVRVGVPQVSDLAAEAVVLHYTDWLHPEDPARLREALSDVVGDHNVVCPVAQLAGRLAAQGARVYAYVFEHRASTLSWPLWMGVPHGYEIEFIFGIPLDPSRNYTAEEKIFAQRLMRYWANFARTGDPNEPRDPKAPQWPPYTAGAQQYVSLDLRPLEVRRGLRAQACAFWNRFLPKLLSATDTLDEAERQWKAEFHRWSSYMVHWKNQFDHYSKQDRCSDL

[4] = molecular target: T2, human recombinant acetylcholinesterase (AChE); assay: Fluorescence steady-state binding experiments (intrinsic Trp fluorescence); conditions: pH 7.4

T1 sequence (Q8N0W4 42-676 limits assumed): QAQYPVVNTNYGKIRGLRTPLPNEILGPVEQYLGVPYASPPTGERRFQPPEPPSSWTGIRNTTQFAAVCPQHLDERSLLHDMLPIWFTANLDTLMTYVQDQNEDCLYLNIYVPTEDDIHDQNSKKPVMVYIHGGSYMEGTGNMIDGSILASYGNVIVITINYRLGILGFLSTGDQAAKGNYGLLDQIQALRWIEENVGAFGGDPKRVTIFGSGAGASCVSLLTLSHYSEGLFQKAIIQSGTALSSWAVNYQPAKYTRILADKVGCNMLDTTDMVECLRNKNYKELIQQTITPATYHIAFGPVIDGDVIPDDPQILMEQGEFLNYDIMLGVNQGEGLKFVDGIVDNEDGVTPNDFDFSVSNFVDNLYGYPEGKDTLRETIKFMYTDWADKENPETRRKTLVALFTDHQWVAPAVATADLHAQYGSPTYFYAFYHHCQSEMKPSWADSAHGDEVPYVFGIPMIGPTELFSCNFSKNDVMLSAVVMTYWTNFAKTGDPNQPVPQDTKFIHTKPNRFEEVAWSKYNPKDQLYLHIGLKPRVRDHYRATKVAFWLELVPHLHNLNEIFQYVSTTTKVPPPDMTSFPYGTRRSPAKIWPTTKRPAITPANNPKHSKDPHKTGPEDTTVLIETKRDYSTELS

Molecule: COc1cc2c(c3oc(=O)c4c(c13)CCC4=O)[C@@H]1CCO[C@@H]1O2 [Aflatoxin B2, aflatoxin B2]
- quenching / decrease of the protein fluorescence emission intensity ([1]; pH 7.4): about 11%
- Kd ([1]; pH 7.4): 0.0103 µM
- Kd ([2]; pH 7.4, read-out: kD for the binding site at higher affinity): 0.0566 µM
- interaction with the protein in MST [3]: did not confirm this prediction

Molecule: CC1=C[C@H]2O[C@@H]3[C@H](O)C[C@](C)([C@@]2(CO)[C@H](O)C1=O)[C@]31CO1 [Deoxynivalenol, deoxynivalenol]
- quenching / decrease of the protein fluorescence emission intensity ([1]; pH 7.4): 17%

Molecule: CN1C(=O)[C@]23CC4=CC=C[C@H](O)[C@H]4N2C(=O)[C@@]1(CO)SS3 [Gliotoxin, gliotoxin]
- Kd ([1]; Trp fluorescence emission variation, PBS buffer pH 7.4, 25 °C, non-linear regression): 0.307 µM
- quenching / decrease of the protein fluorescence emission intensity ([1]; pH 7.4): about 17%
- Kd ([2]; MST, PBS buffer pH 7.4, 25 °C, read-out: kD): 1.52 µM
- interaction with the protein in MST ([3]; result in words, data not shown): did not confirm this prediction

Molecule: Aflatoxin B1
- decrease of the fluorescence emission spectrum at increasing concentrations of the toxin [1]: did not show a significant decrease
- effect on Trp fluorescence emission at increasing toxin concentration [4]: a quenching effect was registered
- interaction with the protein in MST ([2]; pH 7.4): no evidence of the interaction
- Kd ([3]; pH 8): 8.4 ± 0.694 µM
